Read-outs that look alike come from different tables or passages of the source.
Assays:
CYP1A2 = CYP1A2 (Homo sapiens (Human), UniProt P05177); assay: CYP enzyme inhibition, fluorescent substrate (CEC)
Procedure: (§1) CYP (Cytochrome P450) enzymes are the major drug metabolizing enzymes present in the liver. The inhibition of CYP enzyme activity (IC50) for each of CYP1A2, CYP2C19, CYP2C9, CYP2D6, CYP3A4(BFC) and CYP3A4(BQ) is determined for compounds, where inhibition of metabolism of a known substrate leads to a decrease in the fluorescence of the metabolized product. The fluorescence of the product is monitored as a function of compound concentration.
(§2) Compounds are dissolved in dimethyl sulfoxide to a concentration of 100 mM. These are diluted 1 μL into 82 μL of acetonitrile. An 11 μL aliquot of this solution is then added to 204 μL of cofactor mix (1.3% NADPH Regeneration system Solution A, 1.04% NADPH Regeneration system Solution B from BD Biosciences, 5% acetonitrile and 0.05% dimethyl sulfoxide). These are then serially diluted 1:1 (160 μL to 160 μL co-factor mix) for a total of 10 points. A 10 μL aliquot of this final mixture is dispensed into 384 well assay plates and incubated for 10 minutes at 37° C. Enzyme and substrate mix (10 μL; 0.5 pmol CYP1A2/5 μM CEC; 1.0 pmol CYP2C9/75 μM MFC; 0.5 pmol CYP2C19/25 μM CEC; 1.5 pmol CYP2D6/1.5 μM AMMC; 1.0 pmol CYP3A4/50 μM BFC; or 1.0 pmol CYP3A4/40 μM BQ) is added to these assay plates. Assay plates are incubated at 37° C. (CYP1A2-15 min; CYP2C9-45 min; CYP2C19, 2D6 and 3A4-30 min) and read in a Tecan Safire 2 plate reader (CYP1A2, 2C19 and 3A4 409 ex/460 em; CYP2C9 and 2D6 409 ex/530 em). The signal versus compound concentration is used to determine the IC50. The enzymes and substrates for this assay are obtained from BD Biosciences.

CYP2C9 = CYP2C9 (Homo sapiens (Human), UniProt P11712); assay: CYP enzyme inhibition, fluorescent substrate (MFC)
Sequence of CYP2C9 (P11712 whole entry): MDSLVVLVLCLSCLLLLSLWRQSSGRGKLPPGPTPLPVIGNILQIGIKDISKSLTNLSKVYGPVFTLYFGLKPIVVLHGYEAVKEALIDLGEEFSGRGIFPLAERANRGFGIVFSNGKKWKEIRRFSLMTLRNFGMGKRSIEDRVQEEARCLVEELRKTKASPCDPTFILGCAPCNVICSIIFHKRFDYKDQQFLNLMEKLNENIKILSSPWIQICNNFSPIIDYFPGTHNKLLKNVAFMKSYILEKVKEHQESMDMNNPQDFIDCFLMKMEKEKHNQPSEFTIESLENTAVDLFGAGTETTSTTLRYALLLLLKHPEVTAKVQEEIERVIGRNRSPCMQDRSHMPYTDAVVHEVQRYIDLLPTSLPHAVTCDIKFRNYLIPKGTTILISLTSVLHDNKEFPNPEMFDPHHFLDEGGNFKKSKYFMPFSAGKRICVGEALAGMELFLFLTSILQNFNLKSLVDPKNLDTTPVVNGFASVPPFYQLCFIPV
Procedure: as §1
(§3) Compounds are dissolved in dimethyl sulfoxide to a concentration of 100 mM. These are diluted 1 μL into 82 μL of acetonitrile. […] These are then serially diluted 1:1 (160 μL to 160 μL co-factor mix) for a total of 10 points. A 10 μL aliquot of this final mixture is dispensed into 384 well assay plates and incubated for 10 minutes at 37° C. […] Assay plates are incubated at 37° C. […] The signal versus compound concentration is used to determine the IC50. The enzymes and substrates for this assay are obtained from BD Biosciences.

B-Raf V600E = B-Raf V600E (Homo sapiens (Human), UniProt P15056, V600E); assay: B-Raf V600E kinase activity biochemical assay (AlphaScreen, biotin-MEK1 phosphorylation); conditions: for IC50: B-Raf V600E; for Biochemical activity ratio V600E/C: ratio of IC50 B-Raf V600E / c-Raf-1
Sequence of B-Raf V600E (P15056 whole entry V600E): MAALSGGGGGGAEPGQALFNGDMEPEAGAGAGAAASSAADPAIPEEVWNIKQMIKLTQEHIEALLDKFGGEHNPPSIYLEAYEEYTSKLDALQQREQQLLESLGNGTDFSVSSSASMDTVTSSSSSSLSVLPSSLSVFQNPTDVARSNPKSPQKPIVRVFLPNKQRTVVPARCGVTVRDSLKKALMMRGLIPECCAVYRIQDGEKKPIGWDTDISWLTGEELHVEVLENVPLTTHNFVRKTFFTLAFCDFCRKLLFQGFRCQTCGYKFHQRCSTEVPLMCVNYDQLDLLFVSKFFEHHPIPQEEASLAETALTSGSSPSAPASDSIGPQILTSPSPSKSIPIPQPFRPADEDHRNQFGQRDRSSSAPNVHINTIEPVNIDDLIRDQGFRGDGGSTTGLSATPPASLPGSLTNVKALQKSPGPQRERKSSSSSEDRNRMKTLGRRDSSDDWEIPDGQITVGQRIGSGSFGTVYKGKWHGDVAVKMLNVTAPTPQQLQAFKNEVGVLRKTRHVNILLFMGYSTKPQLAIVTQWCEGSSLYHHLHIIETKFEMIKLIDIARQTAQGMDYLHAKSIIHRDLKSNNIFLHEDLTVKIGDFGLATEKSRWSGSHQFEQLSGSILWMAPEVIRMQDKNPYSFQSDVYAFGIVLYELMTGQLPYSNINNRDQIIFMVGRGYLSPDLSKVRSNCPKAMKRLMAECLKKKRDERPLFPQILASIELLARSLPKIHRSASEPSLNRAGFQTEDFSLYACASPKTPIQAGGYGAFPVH
Procedure: (§4) Compounds to be tested are diluted in dimethyl sulfoxide to a concentration of 0.1 mM. These are serially diluted 15 μL into 30 μL of dimethyl sulfoxide seven times in 96 well plates for a total of 8 dilution points, and for each dilution point 1 μL is added to a well of an assay plate. […] The reaction is started with addition of 10 μL of 200 μM ATP (i.e. final 100 μM ATP). After incubation of the kinase reaction for 45 minutes at room temperature, 5 μL/well of Stop Solution is added (25 mM Hepes pH 7.5, 100 mM EDTA, 0.01% BSA with donor beads (Streptavidin coated beads, Perkin Elmer), acceptor beads (Protein A coated, Perkin Elmer), and anti phosphor MEK1/2 antibody (CellSignal), each at final concentration 10 μg/mL). The plates are incubated for 3 hours at room temperature and read on Envision reader (Perkin Elmer). […] The signal vs. compound concentration is used to determine the IC50.

c-Raf-1 = c-Raf-1 (Homo sapiens, UniProt P04049); assay: c-Raf-1 kinase activity biochemical assay (AlphaScreen, biotin-MEK1 phosphorylation)
Sequence of c-Raf-1 (P04049 whole entry, looked up): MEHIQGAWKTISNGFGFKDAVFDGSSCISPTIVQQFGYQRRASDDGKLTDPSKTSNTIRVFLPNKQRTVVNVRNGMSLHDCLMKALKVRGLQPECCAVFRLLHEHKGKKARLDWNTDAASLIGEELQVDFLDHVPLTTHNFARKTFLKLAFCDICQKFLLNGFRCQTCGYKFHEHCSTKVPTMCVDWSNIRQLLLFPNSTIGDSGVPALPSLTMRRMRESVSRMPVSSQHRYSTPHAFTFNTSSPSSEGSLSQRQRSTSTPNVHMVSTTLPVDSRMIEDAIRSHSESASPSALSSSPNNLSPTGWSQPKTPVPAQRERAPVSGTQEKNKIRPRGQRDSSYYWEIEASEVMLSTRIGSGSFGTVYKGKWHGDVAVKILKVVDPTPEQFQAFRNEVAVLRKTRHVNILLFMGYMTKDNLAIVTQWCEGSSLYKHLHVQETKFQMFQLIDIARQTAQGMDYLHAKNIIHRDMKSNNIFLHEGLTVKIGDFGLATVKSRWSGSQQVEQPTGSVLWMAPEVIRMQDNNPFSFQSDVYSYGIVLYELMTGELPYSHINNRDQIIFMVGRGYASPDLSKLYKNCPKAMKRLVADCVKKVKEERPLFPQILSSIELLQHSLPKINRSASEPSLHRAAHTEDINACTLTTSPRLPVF
Procedure: as §4

CYP3A4(BFC) = CYP3A4(BFC) (Homo sapiens (Human), UniProt P08684); assay: CYP enzyme inhibition, fluorescent substrate BFC
Sequence of CYP3A4(BFC) (P08684 whole entry): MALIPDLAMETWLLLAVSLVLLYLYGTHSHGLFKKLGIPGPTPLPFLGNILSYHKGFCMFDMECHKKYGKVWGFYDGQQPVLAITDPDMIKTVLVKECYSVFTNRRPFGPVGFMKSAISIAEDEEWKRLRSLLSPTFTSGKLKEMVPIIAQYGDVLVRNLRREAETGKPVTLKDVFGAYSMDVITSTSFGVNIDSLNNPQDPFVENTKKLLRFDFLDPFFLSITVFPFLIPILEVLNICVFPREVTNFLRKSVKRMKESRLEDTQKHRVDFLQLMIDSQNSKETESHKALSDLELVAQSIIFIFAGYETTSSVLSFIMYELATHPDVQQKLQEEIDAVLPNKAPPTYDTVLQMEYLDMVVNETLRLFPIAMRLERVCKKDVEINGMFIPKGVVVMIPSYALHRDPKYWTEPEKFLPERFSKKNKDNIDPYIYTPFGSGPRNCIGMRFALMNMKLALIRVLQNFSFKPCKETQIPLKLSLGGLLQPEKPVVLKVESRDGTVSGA
Procedure: as §1, §3

CYP2C19 = CYP2C19 (Homo sapiens (Human), UniProt P33261); assay: CYP enzyme inhibition, fluorescent substrate (CEC)
Sequence of CYP2C19 (P33261 whole entry): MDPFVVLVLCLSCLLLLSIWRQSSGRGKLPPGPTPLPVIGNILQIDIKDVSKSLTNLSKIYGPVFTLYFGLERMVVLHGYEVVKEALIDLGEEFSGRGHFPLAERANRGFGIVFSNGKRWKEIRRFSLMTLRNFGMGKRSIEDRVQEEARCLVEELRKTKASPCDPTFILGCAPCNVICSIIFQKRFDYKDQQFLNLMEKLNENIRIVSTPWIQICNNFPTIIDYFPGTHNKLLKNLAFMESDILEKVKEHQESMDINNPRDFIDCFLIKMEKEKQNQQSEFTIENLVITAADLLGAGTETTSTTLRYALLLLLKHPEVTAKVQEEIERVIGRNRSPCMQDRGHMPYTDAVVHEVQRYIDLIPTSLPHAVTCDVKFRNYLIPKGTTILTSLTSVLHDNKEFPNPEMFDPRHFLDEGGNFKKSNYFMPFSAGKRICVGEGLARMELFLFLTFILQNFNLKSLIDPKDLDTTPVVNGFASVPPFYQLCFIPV
Procedure: as §1, §3

CYP2D6 = CYP2D6 (Homo sapiens (Human), UniProt P10635); assay: CYP enzyme inhibition, fluorescent substrate (AMMC); format: in vitro ADME; conditions: read-out: Cyp IC50 2D6
Sequence of CYP2D6 (P10635 whole entry): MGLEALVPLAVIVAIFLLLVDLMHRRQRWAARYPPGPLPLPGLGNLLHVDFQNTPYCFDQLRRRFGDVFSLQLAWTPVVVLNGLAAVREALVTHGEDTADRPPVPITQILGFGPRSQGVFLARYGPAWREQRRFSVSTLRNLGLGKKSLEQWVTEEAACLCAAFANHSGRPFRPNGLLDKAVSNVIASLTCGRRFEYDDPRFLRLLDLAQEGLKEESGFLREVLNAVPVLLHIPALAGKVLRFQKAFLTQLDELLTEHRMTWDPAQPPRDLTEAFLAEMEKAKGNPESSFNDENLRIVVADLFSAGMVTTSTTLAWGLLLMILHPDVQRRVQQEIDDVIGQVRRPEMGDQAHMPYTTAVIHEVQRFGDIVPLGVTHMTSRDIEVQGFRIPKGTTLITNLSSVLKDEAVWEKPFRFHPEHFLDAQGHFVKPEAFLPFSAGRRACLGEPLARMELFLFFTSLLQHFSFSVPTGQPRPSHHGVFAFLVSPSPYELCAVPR
Procedure: as §1, §2

B-Raf [1] = target: B-Raf (Homo sapiens (Human), UniProt P15056); assay: B-Raf kinase activity biochemical assay (AlphaScreen, biotin-MEK1 phosphorylation); conditions: B-Raf
Sequence of B-Raf (Homo sapiens (Human), UniProt P15056) (P15056 whole entry): as the sequence (P15056 whole entry V600E) above, with E600V counted along it
Procedure: as §4

B-Raf [2] = assay: as above; conditions: for Biochemical activity ratio B/V600E: ratio of IC50 B-Raf / B-Raf V600E; for Biochemical activity ratio B/C: ratio of IC50 B-Raf / c-Raf-1
Procedure: as §4

[3] = Relative solubility by turbidity threshold concentration in aqueous buffers (pH 1.5, 4.5, 6.8, 7.4); format: physicochemical; conditions: for turbidity threshold (L, M, H) 1.4: pH 1.4 [sic] (method: SGF pH 1.5); for turbidity threshold (L, M, H) 6.8: pH 6.8 (SIF); for turbidity threshold (L, M, H) 7.4: pH 7.4 (HEPES); for turbidity threshold (L, M, H) 4.5: pH 4.5 (SIF)
Procedure: As an indication of relative solubility, the turbidity of compounds in aqueous solutions is assessed. To assess possible compound properties in different physiological compartments, such as stomach, intestine, and blood, a series of aqueous buffers with varying pH is used. Thus each compound is diluted into four different physiologically relevant buffers and solution turbidity is measured by spectrophotometry.
Compounds are dissolved at a concentration of 25 mM in dimethyl sulfoxide, then serially diluted 1:1 into a 96 well plate, diluting 10 times in pure dimethyl sulfoxide, with the final well of each row a dimethyl sulfoxide blank. In an assay plate, 99 μL of appropriate buffer is added to each well, and 1 μL of each sample dilution is added to the buffer, achieving a range of final total concentrations in aqueous solutions having different pH. The buffers used are Simulated Gastric Fluid (SGF-pH 1.5) 0.5M NaCl, pH 1.5; Simulated Intestinal fluid (SIF-pH 4.5 and pH 6.8) 0.05M NaH2PO4, pH 4.5 and 6.8; and Hepes Buffer (HEPES-pH 7.4) 10 mM HEPES, 150 mM NaCl, pH 7.4. Control compounds pyrene, estriol and propranolol HCl are also assessed. Plates are spun and then mixed for 1 minute, and the absorbance is read using a Tecan Safire II to read wavelengths in the visible range (490, 535, and 650 nm) at four locations per well, reflecting the degree of turbidity present. The average optical density for each wavelength in each well is graphed vs. compound concentration, and the concentration at which the curve crosses a threshold O.D. of 0.01 for each wavelength is reported as the endpoint turbidity assay result. The average of the three wavelengths is used to compare turbidity of compounds. Compounds are considered to have low solubility if the threshold concentration is <31.3 μM, moderate solubility if the threshold concentration is 31.3 μM to 250 μM, and high solubility if the threshold concentration is >250 μm.
The following table indicates the relative solubility (L=low, M=moderate, H=high) based on turbidity threshold concentration at each pH for exemplary compounds according to the invention as indicated: […]

[4] = read-out: Cyp IC50 2C9, CYP2C9, substrate MFC
[5] = read-out: Cyp IC50 2C19, CYP2C19, substrate CEC
[6] = read-out: Cyp IC50 3A4(BFC), CYP3A4, substrate BFC

Sequence of CYP1A2 (P05177 whole entry): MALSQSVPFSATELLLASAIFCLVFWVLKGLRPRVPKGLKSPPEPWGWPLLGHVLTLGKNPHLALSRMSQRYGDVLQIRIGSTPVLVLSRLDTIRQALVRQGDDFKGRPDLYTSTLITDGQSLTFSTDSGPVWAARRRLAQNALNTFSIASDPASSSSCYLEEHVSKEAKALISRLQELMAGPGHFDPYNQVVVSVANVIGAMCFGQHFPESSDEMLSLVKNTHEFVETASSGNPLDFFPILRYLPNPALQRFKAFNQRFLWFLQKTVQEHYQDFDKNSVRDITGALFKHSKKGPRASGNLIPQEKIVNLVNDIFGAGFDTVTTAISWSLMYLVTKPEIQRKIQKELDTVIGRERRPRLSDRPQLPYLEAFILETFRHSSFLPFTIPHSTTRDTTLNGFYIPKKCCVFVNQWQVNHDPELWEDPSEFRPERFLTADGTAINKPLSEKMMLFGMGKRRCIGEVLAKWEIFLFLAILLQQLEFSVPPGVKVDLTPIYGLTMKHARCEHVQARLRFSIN

Structure (SMILES)	IC50 (CYP1A2; human, 15 min) [µM]	IC50 (CYP2C9; [4]) [µM]	IC50 (B-Raf V600E) [µM]	Biochemical activity ratio V600E/C (B-Raf V600E)	IC50 (c-Raf-1) [µM]	IC50 (CYP3A4(BFC)) [µM]	IC50 (CYP2C19; [5]) [µM]	IC50 (CYP2D6) [µM]	IC50 (B-Raf [1]) [µM]	Biochemical activity ratio B/V600E (B-Raf [2])	Biochemical activity ratio B/C (B-Raf [2])	IC50 (CYP1A2; read-out: Cyp IC50 1A2, CYP1A2, substrate CEC) [µM]	IC50 (CYP3A4(BFC); [6]) [µM]	turbidity threshold (L, M, H) 1.4 [3]	turbidity threshold (L, M, H) 6.8 [3]	turbidity threshold (L, M, H) 7.4 [3]	IC50 (CYP2C19) [µM]	turbidity threshold (L, M, H) 4.5 [3]	IC50 (CYP2C9) [µM]
CC(C)Cc1ncnc2[nH]cc(C(=O)c3c(F)ccc(NS(=O)(=O)c4ccc(C(F)(F)F)cc4)c3F)c12 [P-1015, N-[2,4-Difluoro-3-(4-isobutyl-7H-pyrrolo[2,3-d]pyrimidine-5-carbonyl)-phenyl]-4-trifluoromethyl-benzenesulfonamide]	> 10	> 10	> 0.1	>10	< 0.1	5 to 10	> 10	> 10	> 0.1	0.1-10	>10	–	–	–	–	–	–	–	–
O=C(c1c(F)ccc(NS(=O)(=O)c2ccc(C(F)(F)F)cc2)c1F)c1c[nH]c2ncnc(Cl)c12 [P-1016, N-[3-(4-Chloro-7H-pyrrolo[2,3-d]pyrimidine-5-carbonyl)-2,4-difluoro-phenyl]-4-trifluoromethyl-benzenesulfonamide]	–	> 10	> 0.1	>10	< 0.1	–	> 10	> 10	> 0.1	0.1-10	>10	> 10	> 10	L (low solubility if the threshold concentration is <31.3 μM)	L (low solubility if the threshold concentration is <31.3 μM)	H (high solubility if the threshold concentration is >250 μm)	–	–	–
CC(C)CNc1ncnc2[nH]cc(C(=O)c3c(F)ccc(NS(=O)(=O)c4ccc(C(F)(F)F)cc4)c3F)c12 [P-1020, N-[2,4-Difluoro-3-(4-isobutylamino-7H-pyrrolo[2,3-d]pyrimidine-5-carbonyl)-phenyl]-4-trifluoromethyl-benzenesulfonamide]	> 10	> 10	> 0.1	>10	< 0.1	–	> 10	> 10	< 0.1	0.1-10	>10	–	> 10	H (high solubility if the threshold concentration is >250 μm)	–	H (high solubility if the threshold concentration is >250 μm)	–	–	–
CCNc1ncnc2[nH]cc(C(=O)c3c(F)ccc(NS(=O)(=O)c4ccc(C(F)(F)F)cc4)c3F)c12 [P-1024, N-[3-(4-Ethylamino-7H-pyrrolo[2,3-d]pyrimidine-5-carbonyl)-2,4-difluoro-phenyl]-4-trifluoromethyl-benzenesulfonamide]	> 10	> 10	> 0.1	>10	< 0.1	–	–	> 10	< 0.1	0.1-10	>10	–	> 10	M (moderate solubility if the threshold concentration is 31.3 μM to 250 μM)	L (low solubility if the threshold concentration is <31.3 μM)	L (low solubility if the threshold concentration is <31.3 μM)	5 to 10	L (low solubility if the threshold concentration is <31.3 μM)	–
CCCc1ccc(S(=O)(=O)Nc2ccc(F)c(C(=O)c3c[nH]c4ncnc(OCC)c34)c2F)cc1 [P-1038, N-[3-(4-Ethoxy-7H-pyrrolo[2,3-d]pyrimidine-5-carbonyl)-2,4-difluoro-phenyl]-4-propyl-benzenesulfonamide]	> 10	–	> 0.1	>10	< 0.1	5 to 10	–	> 10	< 0.1	0.1-10	>10	–	–	–	–	–	5 to 10	–	5 to 10
O=C(c1c(F)ccc(NS(=O)(=O)c2ccccc2)c1F)c1c[nH]c2nccc(C(F)(F)F)c12 [P-2017, N-[2,4-Difluoro-3-(4-trifluoromethyl-1H-pyrrolo[2,3-b]pyridine-3-carbonyl)-phenyl]-benzenesulfonamide]	–	–	> 0.1	>10	< 0.1	–	–	–	> 0.1	0.1-10	>10	–	–	L (low solubility if the threshold concentration is <31.3 μM)	L (low solubility if the threshold concentration is <31.3 μM)	M (moderate solubility if the threshold concentration is 31.3 μM to 250 μM)	–	L (low solubility if the threshold concentration is <31.3 μM)	–

From patent US9617267B2, “Compounds and methods for kinase modulation, and indications therefor” (Plexxikon Inc., priority 2009, dated 2017)
